{
  "source": "ChEMBL document CHEMBL6182935",
  "about": "“Discovery of a Novel Silybin Derivative for the Treatment of Metabolic Dysfunction-Associated Steatohepatitis” (J Med Chem, 2025)",
  "key": {"[1]": {"experiment": "Inhibition of lipid peroxidation in egg yolk (unknown origin) at 100 uM preheated with compound and FeSO4 for 15 mins followed by TCA/TBA addition measured after 15 mins by absorbance based assay relative to control", "type": "functional, tissue-based", "design": "scale not given: the % may be the effect or the level left", "conditions": "time 30.0 min"}, "Hepatocyte [2]": {"test_system": "Hepatocyte", "experiment": "Anti-MASH activity in palmitate/oleate-stimulated mouse primary hepatocytes assessed as reduction in triglyceride level", "type": "functional, cell-based"}, "Hepatocyte [3]": {"test_system": "Hepatocyte", "experiment": "Anti-MASH activity in palmitate/oleate-stimulated mouse primary hepatocytes assessed as reduction in FASN mRNA level by q-PCR analysis", "type": "functional, cell-based"}, "[4]": {"experiment": "Toxicity in male Sprague-Dawley rat model of CCl4-induced ALI assessed as body weight change at 100 mg/kg, IG qd pretreated with compound for 7 days followed by CCl4 administration after 2 hrs post-compound treatment measured after 16 hrs post-CCl4 injection", "type": "organism-based", "conditions": "in vivo, po, 186 h"}, "[5]": {"experiment": "Toxicity in HFD-fed CCl4-treated male C57BL/6 mouse assessed as body weight loss at 150 mg/kg, po qd treated for 4 weeks", "type": "organism-based", "conditions": "in vivo, 672 h"}, "Mus musculus [6]": {"test_system": "Mus musculus", "experiment": "Anti-MASH activity in HFD-fed CCl4-treated male C57BL/6 mouse assessed as reversal of volume of liver at 150 mg/kg, po qd treated for 4 weeks", "type": "functional, organism-based"}, "Mus musculus [7]": {"test_system": "Mus musculus", "experiment": "Anti-MASH activity in HFD-fed CCl4-treated male C57BL/6 mouse assessed as reduction in fat accumulation in liver at 150 mg/kg, po qd treated for 4 weeks by Oil red O staining based analysis", "type": "functional, organism-based"}, "[8]": {"experiment": "Apparent clearance during terminal phase in overnight-fasted male Sprague-Dawley rat at 150 mg/kg, po measured up to 12 hrs by HPLC analysis", "type": "ADME, organism-based", "conditions": "in vivo, read-out: CLz/F (converted)"}, "[9]": {"experiment": "Acute toxicity in male KM mouse assessed as animal suvival at 2 g/kg, po administered as single dose measured after 2 weeks", "type": "organism-based", "conditions": "in vivo, 2000 mg/kg, 336 h"}, "[10]": {"experiment": "Acute toxicity in male KM mouse assessed as abnormalities in animal at 2 g/kg, po administered as single dose measured after 2 weeks", "type": "organism-based", "conditions": "in vivo, 2000 mg/kg, 336 h"}},
  "note": "The source made the active and inactive calls. The calls are words filed in the database; no cut-off is given here.",
  "data": [
    {"molecule": "COc1cc([C@@H]2Oc3cc([C@H]4Oc5cc(O)cc(O)c5C(=O)[C@@H]4O)ccc3OC2CS)ccc1O", "note": "(stereo not given in full)", "values": [
      {"measurement": "Activity", "setting": "[1]", "value": 67, "unit": "%"},
      {"measurement": "Activity", "setting": "Hepatocyte [2]", "value": "Active"},
      {"measurement": "Activity", "setting": "Hepatocyte [3]", "value": "Active"},
      {"measurement": "Activity", "setting": "[4]", "value": "Non-toxic"},
      {"measurement": "Activity", "setting": "[5]", "value": "Non-toxic"},
      {"measurement": "Activity", "setting": "Mus musculus [6]", "value": "Active; Activity Better Than Silybin"},
      {"measurement": "Activity", "setting": "Mus musculus [7]", "value": "Active"},
      {"measurement": "CL/F", "setting": "[8]", "value": 51.3, "unit": "mL/min"},
      {"measurement": "Activity", "setting": "[9]", "value": "Non-toxic"},
      {"measurement": "Activity", "setting": "[10]", "value": "Non-toxic"}
    ]}
  ]
}
